Experiments:
[1] = biological target: T1, Mitogen-activated protein kinase kinase kinase 2 (Homo sapiens) (UniProt Q9Y2U5); assay: Inhibition of human MEKK2 using myelin basic protein as substrate at 1 uM in presence of 32P-ATP by Hotspot assay relative to control; values are per cent of control
T1 sequence (whole entry): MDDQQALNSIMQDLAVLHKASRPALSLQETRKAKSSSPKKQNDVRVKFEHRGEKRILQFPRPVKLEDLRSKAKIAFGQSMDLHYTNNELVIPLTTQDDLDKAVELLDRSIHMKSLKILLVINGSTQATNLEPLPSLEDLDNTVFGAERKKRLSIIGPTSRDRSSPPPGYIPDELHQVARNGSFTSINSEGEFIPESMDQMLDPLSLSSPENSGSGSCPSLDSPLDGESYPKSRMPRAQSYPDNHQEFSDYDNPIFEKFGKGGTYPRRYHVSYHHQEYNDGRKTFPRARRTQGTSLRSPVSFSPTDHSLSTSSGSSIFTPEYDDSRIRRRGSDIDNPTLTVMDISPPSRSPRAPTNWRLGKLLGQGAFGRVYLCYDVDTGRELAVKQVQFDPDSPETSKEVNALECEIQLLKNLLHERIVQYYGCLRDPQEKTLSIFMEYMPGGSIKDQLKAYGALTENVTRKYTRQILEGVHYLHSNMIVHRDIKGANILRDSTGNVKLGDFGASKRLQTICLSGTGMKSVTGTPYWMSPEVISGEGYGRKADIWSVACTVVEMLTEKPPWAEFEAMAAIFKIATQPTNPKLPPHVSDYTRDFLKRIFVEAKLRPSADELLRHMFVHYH

[2] = biological target: Dual specificity protein kinase CLK2 (Homo sapiens) (UniProt P49760); assay: Inhibition of human CLK2 using myelin basic protein as substrate at 1 uM in presence of 32P-ATP by Hotspot assay relative to control; values are per cent of control
[3] = biological target: Interleukin-1 receptor-associated kinase 1 (Homo sapiens) (UniProt P51617); assay: Inhibition of human IRAK1 using myelin basic protein as substrate at 1 uM in presence of 32P-ATP by Hotspot assay relative to control; values are per cent of control
[4] = biological target: Serine/threonine-protein kinase WNK2 (Homo sapiens) (UniProt Q9Y3S1); assay: Inhibition of human WNK2 using myelin basic protein as substrate at 1 uM in presence of 32P-ATP by Hotspot assay relative to control; values are per cent of control
[5] = biological target: BDNF/NT-3 growth factors receptor (Homo sapiens) (UniProt Q16620); assay: Residual activity of human TRKB using poly[Glu:Tyr] (4:1) as substrate at 1 uM in presence of 32P-ATP by Hotspot assay relative to control
[6] = biological target: Ribosomal protein S6 kinase beta-2 (Homo sapiens) (UniProt Q9UBS0); assay: Inhibition of human p70S6Kb/RPS6KB2 using KKRNRTLTK as substrate at 1 uM in presence of 32P-ATP by Hotspot assay relative to control; values are per cent of control
[7] = biological target: CDK9/cyclin T1 (Homo sapiens) (UniProt O60563+P50750); assay: Inhibition of human CDK9/cyclin T1 using KTFCGTPEYLAPEVRREPRILSEEEQEMFRDFDYIADWC as substrate at 1 uM in presence of 32P-ATP by Hotspot assay relative to control; values are per cent of control
[8] = biological target: Calcium/calmodulin-dependent protein kinase kinase 1 (Homo sapiens) (UniProt Q8N5S9); assay: Inhibition of human CAMKK1 using myelin basic protein as substrate at 1 uM in presence of 32P-ATP by Hotspot assay relative to control; values are per cent of control
[9] = biological target: T2, Serine/threonine-protein kinase Nek3 (Homo sapiens) (UniProt P51956); assay: Residual activity of human NEK3 using myelin basic protein as substrate at 1 uM in presence of 32P-ATP by Hotspot assay relative to control
T2 sequence (whole entry): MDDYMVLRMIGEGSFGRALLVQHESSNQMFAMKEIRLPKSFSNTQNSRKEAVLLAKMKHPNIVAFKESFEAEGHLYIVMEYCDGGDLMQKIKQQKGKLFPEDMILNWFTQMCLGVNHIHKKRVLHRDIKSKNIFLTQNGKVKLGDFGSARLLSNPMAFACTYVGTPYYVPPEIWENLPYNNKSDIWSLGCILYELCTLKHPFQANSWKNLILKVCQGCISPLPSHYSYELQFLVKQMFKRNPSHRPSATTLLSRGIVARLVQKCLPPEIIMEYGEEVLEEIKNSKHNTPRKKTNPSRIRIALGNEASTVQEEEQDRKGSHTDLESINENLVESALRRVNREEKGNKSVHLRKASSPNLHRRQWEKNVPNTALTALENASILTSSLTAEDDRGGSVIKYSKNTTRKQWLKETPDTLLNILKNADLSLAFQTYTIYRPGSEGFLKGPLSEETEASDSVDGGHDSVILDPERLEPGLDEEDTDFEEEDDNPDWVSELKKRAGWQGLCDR

[10] = biological target: Serine/threonine-protein kinase SIK2 (Homo sapiens) (UniProt Q9H0K1); assay: Inhibition of human SIK2 using AMARAASAAALARRR as substrate at 1 uM in presence of 32P-ATP by Hotspot assay relative to control
[11] = biological target: Focal adhesion kinase 1 (Homo sapiens) (UniProt Q05397); assay: Inhibition of human FAK/PTK2 using poly[Glu:Tyr] (4:1) as substrate at 1 uM in presence of 32P-ATP by Hotspot assay relative to control; values are per cent of control
[12] = biological target: ALK tyrosine kinase receptor (Homo sapiens) (UniProt Q9UM73); assay: Inhibition of human ALK using poly[Glu:Tyr] (4:1) as substrate at 1 uM in presence of 32P-ATP by Hotspot assay relative to control; values are per cent of control
Homo sapiens = species on record: Homo sapiens; assay: Inhibition of human TAOK2/TAO1 using myelin basic protein as substrate at 1 uM in presence of 32P-ATP by Hotspot assay relative to control; values are per cent of control
[13] = biological target: Ephrin type-A receptor 2 (Homo sapiens) (UniProt P29317); assay: Inhibition of human EPHA2 using poly[Glu:Tyr] (4:1) as substrate at 1 uM in presence of 32P-ATP by Hotspot assay relative to control; values are per cent of control
[14] = biological target: Tyrosine-protein kinase Fes/Fps (Homo sapiens) (UniProt P07332); assay: Inhibition of human FES/FPS using poly[Glu:Tyr] (4:1) as substrate at 1 uM in presence of 32P-ATP by Hotspot assay relative to control; values are per cent of control

Sequence of Calcium/calmodulin-dependent protein kinase kinase 1 (Homo sapiens) (Q8N5S9 whole entry, looked up): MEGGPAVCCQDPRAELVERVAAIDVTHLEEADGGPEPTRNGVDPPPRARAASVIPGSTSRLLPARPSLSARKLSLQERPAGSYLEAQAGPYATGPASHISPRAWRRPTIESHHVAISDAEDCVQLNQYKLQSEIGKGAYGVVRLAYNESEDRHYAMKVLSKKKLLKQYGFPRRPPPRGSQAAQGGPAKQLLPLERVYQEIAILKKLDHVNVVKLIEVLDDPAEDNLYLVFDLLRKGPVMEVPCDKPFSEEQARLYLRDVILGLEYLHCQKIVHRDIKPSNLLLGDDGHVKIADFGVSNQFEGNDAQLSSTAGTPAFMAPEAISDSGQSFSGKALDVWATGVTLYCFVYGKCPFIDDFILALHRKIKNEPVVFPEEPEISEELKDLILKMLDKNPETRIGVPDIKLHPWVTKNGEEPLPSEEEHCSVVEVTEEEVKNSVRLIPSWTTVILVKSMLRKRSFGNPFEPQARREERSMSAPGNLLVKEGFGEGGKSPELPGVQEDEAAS
Sequence of Focal adhesion kinase 1 (Homo sapiens) (Q05397 2-1052 limits assumed): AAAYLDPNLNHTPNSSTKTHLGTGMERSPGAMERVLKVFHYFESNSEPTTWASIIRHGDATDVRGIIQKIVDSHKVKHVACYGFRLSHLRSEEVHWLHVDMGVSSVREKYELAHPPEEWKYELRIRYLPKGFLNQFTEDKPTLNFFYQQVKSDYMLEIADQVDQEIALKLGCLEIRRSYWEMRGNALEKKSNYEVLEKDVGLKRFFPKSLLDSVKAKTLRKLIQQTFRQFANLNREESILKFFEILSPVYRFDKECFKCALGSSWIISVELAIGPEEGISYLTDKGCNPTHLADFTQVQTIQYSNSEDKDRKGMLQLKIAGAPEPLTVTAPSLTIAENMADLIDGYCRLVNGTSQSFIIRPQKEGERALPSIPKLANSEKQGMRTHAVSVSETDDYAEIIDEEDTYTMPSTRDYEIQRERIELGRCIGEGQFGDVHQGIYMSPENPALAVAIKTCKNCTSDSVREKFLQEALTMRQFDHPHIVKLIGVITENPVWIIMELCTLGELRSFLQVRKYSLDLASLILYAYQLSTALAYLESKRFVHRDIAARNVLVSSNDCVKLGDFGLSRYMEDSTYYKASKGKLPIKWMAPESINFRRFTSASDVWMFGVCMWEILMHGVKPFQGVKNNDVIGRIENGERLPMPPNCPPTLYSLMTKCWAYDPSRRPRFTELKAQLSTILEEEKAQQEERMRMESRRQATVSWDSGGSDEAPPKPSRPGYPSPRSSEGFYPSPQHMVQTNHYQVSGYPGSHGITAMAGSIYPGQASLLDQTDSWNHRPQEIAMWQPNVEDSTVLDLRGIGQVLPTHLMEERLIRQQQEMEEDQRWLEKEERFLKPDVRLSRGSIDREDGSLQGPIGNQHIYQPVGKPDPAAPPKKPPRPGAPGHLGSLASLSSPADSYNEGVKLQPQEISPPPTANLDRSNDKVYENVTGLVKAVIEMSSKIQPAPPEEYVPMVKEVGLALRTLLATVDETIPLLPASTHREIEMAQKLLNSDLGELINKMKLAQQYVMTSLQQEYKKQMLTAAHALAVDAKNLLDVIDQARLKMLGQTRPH
Sequence of Ephrin type-A receptor 2 (Homo sapiens) (P29317 whole entry): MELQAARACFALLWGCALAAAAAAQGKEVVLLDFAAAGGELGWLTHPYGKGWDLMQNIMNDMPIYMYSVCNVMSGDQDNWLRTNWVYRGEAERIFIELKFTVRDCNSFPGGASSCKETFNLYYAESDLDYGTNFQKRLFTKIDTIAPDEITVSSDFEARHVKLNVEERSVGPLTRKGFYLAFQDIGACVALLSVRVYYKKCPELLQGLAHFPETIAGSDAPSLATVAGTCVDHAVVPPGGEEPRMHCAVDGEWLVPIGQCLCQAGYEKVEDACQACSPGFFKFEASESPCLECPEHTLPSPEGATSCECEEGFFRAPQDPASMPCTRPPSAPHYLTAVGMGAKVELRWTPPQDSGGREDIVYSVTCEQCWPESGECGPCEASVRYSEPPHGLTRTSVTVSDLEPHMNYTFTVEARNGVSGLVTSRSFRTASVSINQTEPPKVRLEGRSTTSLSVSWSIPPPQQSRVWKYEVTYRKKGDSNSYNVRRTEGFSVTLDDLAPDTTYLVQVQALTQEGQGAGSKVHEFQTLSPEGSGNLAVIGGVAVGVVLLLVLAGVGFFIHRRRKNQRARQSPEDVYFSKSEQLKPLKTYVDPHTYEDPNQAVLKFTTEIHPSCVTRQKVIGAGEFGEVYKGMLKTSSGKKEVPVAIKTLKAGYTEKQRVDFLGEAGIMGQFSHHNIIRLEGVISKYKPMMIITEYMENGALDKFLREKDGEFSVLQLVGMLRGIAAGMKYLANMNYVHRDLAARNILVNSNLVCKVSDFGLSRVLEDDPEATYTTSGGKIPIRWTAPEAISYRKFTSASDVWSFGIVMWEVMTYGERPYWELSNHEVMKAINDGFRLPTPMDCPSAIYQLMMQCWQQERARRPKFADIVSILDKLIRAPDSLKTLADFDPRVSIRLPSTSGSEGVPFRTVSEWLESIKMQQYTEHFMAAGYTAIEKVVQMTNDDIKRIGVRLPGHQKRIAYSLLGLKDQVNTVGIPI
Sequence of Ribosomal protein S6 kinase beta-2 (Homo sapiens) (Q9UBS0 whole entry): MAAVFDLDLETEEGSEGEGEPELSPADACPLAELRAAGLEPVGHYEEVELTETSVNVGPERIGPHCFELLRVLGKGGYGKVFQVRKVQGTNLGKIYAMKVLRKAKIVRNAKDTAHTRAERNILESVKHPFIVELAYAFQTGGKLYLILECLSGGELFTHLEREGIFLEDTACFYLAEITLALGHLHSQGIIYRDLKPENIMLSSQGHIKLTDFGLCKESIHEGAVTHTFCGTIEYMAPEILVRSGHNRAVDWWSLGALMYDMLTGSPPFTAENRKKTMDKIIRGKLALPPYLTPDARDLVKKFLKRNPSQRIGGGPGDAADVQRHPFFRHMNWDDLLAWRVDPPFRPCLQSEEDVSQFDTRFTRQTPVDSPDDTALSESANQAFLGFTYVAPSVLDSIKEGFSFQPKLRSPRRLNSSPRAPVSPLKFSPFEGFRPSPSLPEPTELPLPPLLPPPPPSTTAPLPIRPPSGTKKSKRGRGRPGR
Sequence of Interleukin-1 receptor-associated kinase 1 (Homo sapiens) (P51617 whole entry, looked up): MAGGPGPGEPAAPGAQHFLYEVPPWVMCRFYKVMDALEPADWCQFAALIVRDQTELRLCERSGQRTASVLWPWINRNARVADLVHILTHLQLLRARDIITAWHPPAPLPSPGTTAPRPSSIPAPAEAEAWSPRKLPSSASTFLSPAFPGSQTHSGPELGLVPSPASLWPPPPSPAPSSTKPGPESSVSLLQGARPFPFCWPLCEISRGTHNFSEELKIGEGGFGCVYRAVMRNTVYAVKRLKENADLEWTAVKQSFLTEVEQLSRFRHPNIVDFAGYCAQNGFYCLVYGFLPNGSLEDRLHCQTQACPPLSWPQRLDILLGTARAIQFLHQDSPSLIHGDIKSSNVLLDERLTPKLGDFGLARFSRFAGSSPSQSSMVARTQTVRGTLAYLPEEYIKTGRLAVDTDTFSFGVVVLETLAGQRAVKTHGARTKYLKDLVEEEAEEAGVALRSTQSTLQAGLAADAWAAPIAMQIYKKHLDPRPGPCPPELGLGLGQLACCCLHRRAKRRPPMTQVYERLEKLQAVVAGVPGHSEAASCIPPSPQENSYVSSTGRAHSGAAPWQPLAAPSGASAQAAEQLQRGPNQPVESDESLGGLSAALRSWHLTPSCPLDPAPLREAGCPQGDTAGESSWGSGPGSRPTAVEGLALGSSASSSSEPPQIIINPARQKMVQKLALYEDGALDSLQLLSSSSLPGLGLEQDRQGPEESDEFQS
Sequence of Serine/threonine-protein kinase SIK2 (Homo sapiens) (Q9H0K1 whole entry, looked up): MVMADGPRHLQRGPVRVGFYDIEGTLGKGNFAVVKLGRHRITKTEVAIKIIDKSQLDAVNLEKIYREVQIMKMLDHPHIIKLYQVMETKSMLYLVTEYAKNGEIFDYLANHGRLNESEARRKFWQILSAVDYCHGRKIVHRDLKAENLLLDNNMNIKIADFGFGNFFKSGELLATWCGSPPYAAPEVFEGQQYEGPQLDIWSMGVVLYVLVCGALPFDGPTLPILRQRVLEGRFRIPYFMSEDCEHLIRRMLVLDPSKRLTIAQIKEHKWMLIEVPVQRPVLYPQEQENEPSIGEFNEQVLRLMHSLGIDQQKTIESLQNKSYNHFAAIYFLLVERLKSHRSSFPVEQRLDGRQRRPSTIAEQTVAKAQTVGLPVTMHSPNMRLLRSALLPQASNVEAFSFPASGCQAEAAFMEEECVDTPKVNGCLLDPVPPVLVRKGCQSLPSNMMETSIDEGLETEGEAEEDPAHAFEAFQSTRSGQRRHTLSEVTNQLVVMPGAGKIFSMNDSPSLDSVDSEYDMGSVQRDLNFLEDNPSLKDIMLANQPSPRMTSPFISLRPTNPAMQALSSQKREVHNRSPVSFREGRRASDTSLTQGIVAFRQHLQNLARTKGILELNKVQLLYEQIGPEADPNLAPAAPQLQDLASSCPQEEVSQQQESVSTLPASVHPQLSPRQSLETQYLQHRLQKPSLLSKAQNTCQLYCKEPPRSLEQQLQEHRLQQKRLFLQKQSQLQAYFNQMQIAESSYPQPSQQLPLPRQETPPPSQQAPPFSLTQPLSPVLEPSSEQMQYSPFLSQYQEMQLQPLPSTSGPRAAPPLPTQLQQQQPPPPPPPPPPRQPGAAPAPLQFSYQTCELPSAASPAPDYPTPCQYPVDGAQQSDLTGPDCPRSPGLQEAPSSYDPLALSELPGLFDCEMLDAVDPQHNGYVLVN

SMILES | residual activity [1] [%] | residual activity [2] [%] | residual activity [3] [%] | residual activity [4] [%] | residual activity [5] [%] | residual activity [6] [%] | residual activity [7] [%] | residual activity [8] [%] | residual activity [9] [%] | inhibition [10] [%] | residual activity [11] [%] | residual activity [12] [%] | residual activity (Homo sapiens) [%] | residual activity [13] [%] | residual activity [14] [%]
CNC(=O)c1ccc2c(c1)ncn2-c1ccc(CC(=O)OC(C)(C)C)cc1 | 100 | 93.7 | 78.6 | 97.9 | 97.8 | 92.3 | 91.3 | 77.3 | 91.3 | 93.2 | 102 | 101 | 102 | 97.3 | 98.1
Cc1cc(-c2cnc(N)c3c(-c4ccc5scnc5c4)csc23)n(C)n1 | 106 | 101 | 90 | 98.9 | 106 | 95.1 | 96.2 | 98.6 | 99.7 | 92 | 97.3 | 96.6 | 97.1 | 74.3 | 95
CC(C)S(=O)(=O)c1ccc2nccc(Nc3ccc4scnc4c3)c2c1 | 92.2 | 97.1 | 102 | 103 | 86.7 | 92.8 | 96.6 | 99.3 | 92 | 93.1 | 93.9 | 90.8 | 93.4 | 80.1 | 86.1

From ChEMBL document CHEMBL5649166, “RIP3 induces apoptosis independent of pronecrotic kinase activity” (Mol Cell, 2014)
